Laboratory results: patent US11673891B2, “Imidazopyrimidine compounds and uses thereof” (Dana-Farber Cancer Institute, Inc., priority 2017, dated 2023)

Assays:
[1] = system: Human adult and elderly PBMCs; test: Adult and elderly PBMCs stimulated with confirmed hit compounds, TNF and IL-1β by ELISA; type: cell-based; conditions: 18 hours, N=5
Experimental: (FIG. 2A) Human adult (top) and elderly (bottom) PBMCs stimulated for 18 hours with the TLR7/8 agonist R848 and 24 confirmed hit compounds from TNF AlphaLISA screen. TNF (left panels) and IL-1β (right panels) were assessed in cell-free supernatants by ELISA. Data are shown as median and interquartile range of N=5.
(§1) ELISAs and Multiplex-Analyte Assays. Supernatants derived from human PBMCs and DC stimulations were assayed by ELISA for TNF (ThermoFisher Scientific; Waltham, Mass., USA). Cytokine and chemokine expression profiles (e.g., IFNγ, IL-9, IL-10, IL-12 (p70), IL-13, IL-1β, IL-23, IL-27, IL-28A, IL-33, IL-6, MIP-3α/CCL20, and TNF) in cell culture supernatants were measured using a customized Milliplex® Human Th17 Magnetic Bead Panel according to the manufacturer's instructions (Millipore, Chicago, Ill., USA). Assays were read and analyzed on the Luminex® 100/200™ System and xPOTENT® software (Luminex, Austin, Tex.). A minimum threshold was set at the minimum detectable concentration for each individual assay, defined as three standard deviations above the mean background.

[2] = system: human adult PBMCs; test: TNF production by ELISA after stimulation of human adult PBMCs; type: cell-based; conditions: 33 μM, 18 hours
Experimental: Table 1. Activity of Exemplary Imidazopyrimidine Compounds on Stimulating TNF Production in PBMCs as Compared to Compound R848 Table 1 provides the activity of exemplary compounds on stimulating TNF production in PBMCs as compared to the benchmark compound R848. Specifically, TNF production was measured by ELISA after stimulation of adult PBMCs with compound 037 analog family or the compound R848 at 33 μM for 18 hours. Analogs are ranked top to bottom by median percentage TNF production (TNF %) as compared to R848 (N=3-5). The compounds have been classified in the following categories according to TNF %: high activity—class A: TNF %>15%; medium activity—class B: 1%<TNF %≤15%; low activity—class C: TNF %≤1%.
as §1
PBMCs were isolated from blood using a Ficoll density gradient. PBMCs either used fresh or were stored at 5×10^7 cells per vial in 1 mL RPMI containing 20% autologous plasma and 10% DMSO at −80° C. until use. Stimulation plates were prepared by transferring 0.66 μl of DMSO-dissolved compounds (10 mM) to each well of a round bottom 96-well plate. PBMCs isolated from human adult donors were resuspended at a concentration of 10^5 cells/200 μl of RPMI supplemented with 10% of platelet-poor plasma. 200 μl of the cell suspension were transferred to each well resulting in a final compound concentration of […]. After about 18 hours of incubation (37° C., 5% CO2), plates were spun down (500×g, room temperature, 5 minutes) and supernatants were harvested for further analysis.

Structure (SMILES): CCC(C(=O)Nc1cc(-c2cn3cccnc3n2)ccc1C)c1ccccc1 (centres unmarked) [Compound 37]
- TNF and IL-1β induction from adult and elderly PBMCs (in words) [1]: induce TNF and IL-1β from adult and elderly PBMCs
- TNF (Median) ([2]; adult PBMCs, ELISA, median, N=3-5, unit not given (FIG. 6B/7B legends: TNF concentration in ng/ml)): 2.403
- Activity class ([2]; class according to TNF % as compared to R848, adult PBMCs): A (high activity—class A: TNF %>15%)
- Production of human TNF by PBMCs (in words) ([2]; human adult PBMCs, ELISA): induces robust production of TNF-α
- TNF % (Median) ([2]; median percentage TNF production as compared to R848, adult PBMCs, N=3-5): 69.79%
